# From PMC5218480 (PLoS ONE, 2017)
# System: MV-4-11 cells
# Test: Gene expression microarray analysis (Affymetrix PrimeView) and GSEA
# Format: cell-based, human
# Design: RFU PODN (11730768_x_at) / Fold change /veh PODN (11730768_x_at) / RFU LINC00158 (11744669_a_at) / Fold change /veh LINC00158 (11744669_a_at) / RFU DUSP10 (11751237_a_at) / Fold change /veh DUSP10 (11751237_a_at) / RFU ID3 (11757404_x_at) / Fold change /veh ID3 (11757404_x_at) / RFU PLEKHG5 (11737974_s_at) / Fold change /veh PLEKHG5 (11737974_s_at) / RFU LRRC4B (11730491_at) / Fold change /veh LRRC4B (11730491_at) / RFU GIMAP4 (11747438_a_at) / Fold change /veh GIMAP4 (11747438_a_at) / RFU KRT8 (11758183_x_at) / Fold change /veh KRT8 (11758183_x_at) / RFU CNN1 (11734310_a_at) / Fold change /veh CNN1 (11734310_a_at) / RFU VPS37D (11726825_at) / Fold change /veh VPS37D (11726825_at) / RFU C10orf10 (11716522_x_at) / Fold change /veh C10orf10 (11716522_x_at) / RFU KIR2DL2 /// KIR2DL4 /// KIR2DL5A /// KIR2DL5B /// KIR2DS1 /// KIR2DS2 /// KIR2DS3 /// KIR2DS4 /// KIR3DL3 /// KIR3DL3 /// KIR3DS1 (11738374_at) / Fold change /veh KIR2DL2 /// KIR2DL4 /// KIR2DL5A /// KIR2DL5B /// KIR2DS1 /// KIR2DS2 /// KIR2DS3 /// KIR2DS4 /// KIR3DL3 /// KIR3DL3 /// KIR3DS1 (11738374_at) / RFU C1QL1 (11718748_at) / Fold change /veh C1QL1 (11718748_at) / RFU TMPRSS4 (11747572_a_at) / Fold change /veh TMPRSS4 (11747572_a_at) / RFU HAMP (11756126_x_at) / Fold change /veh HAMP (11756126_x_at) / RFU RNFT2 (11725882_a_at) / Fold change /veh RNFT2 (11725882_a_at) / RFU NR4A2 (11747474_a_at) / Fold change /veh NR4A2 (11747474_a_at) / RFU ABCC12 (11746883_a_at) / Fold change /veh ABCC12 (11746883_a_at) / RFU TMEM136 (11760407_x_at) / Fold change /veh TMEM136 (11760407_x_at) / RFU CLDN22 /// WWC2 (11732394_at) / Fold change /veh CLDN22 /// WWC2 (11732394_at) / RFU HLA-DPB1 (11760878_x_at) / Fold change /veh HLA-DPB1 (11760878_x_at) / RFU SPINT1 (11716480_a_at) / Fold change /veh SPINT1 (11716480_a_at) / RFU GAP43 (11754022_s_at) / Fold change /veh GAP43 (11754022_s_at) / RFU A4GNT (11735810_at) / Fold change /veh A4GNT (11735810_at) / RFU PRB3 (11715151_x_at) / Fold change /veh PRB3 (11715151_x_at) / RFU TUBB4B (11761932_at) / Fold change /veh TUBB4B (11761932_at) / RFU CAPN14 (11732068_a_at) / Fold change /veh CAPN14 (11732068_a_at) / RFU TMCC2 (11721928_a_at) / Fold change /veh TMCC2 (11721928_a_at) / RFU IRGQ (11745062_a_at) / Fold change /veh IRGQ (11745062_a_at) / RFU FAM174B (11720279_a_at) / Fold change /veh FAM174B (11720279_a_at) / RFU TMPRSS4 (11748680_a_at) / Fold change /veh TMPRSS4 (11748680_a_at) / RFU FAM212B (11763350_a_at) / Fold change /veh FAM212B (11763350_a_at) / RFU PLEKHG5 (11743358_a_at) / Fold change /veh PLEKHG5 (11743358_a_at) / RFU ZSCAN30 (11745921_a_at) / Fold change /veh ZSCAN30 (11745921_a_at) / RFU CMKLR1 (11741424_a_at) / Fold change /veh CMKLR1 (11741424_a_at) / RFU LOC101060620 /// MAPK8IP1 (11723275_at) / Fold change /veh LOC101060620 /// MAPK8IP1 (11723275_at) / RFU SPTSSB (11747773_x_at) / Fold change /veh SPTSSB (11747773_x_at) / RFU PRSS12 (11739890_at) / Fold change /veh PRSS12 (11739890_at) / RFU BIN1 (11741810_x_at) / Fold change /veh BIN1 (11741810_x_at) / RFU WNT11 (11732464_a_at) / Fold change /veh WNT11 (11732464_a_at) / RFU C10orf10 (11716521_a_at) / Fold change /veh C10orf10 (11716521_a_at) / RFU C5orf56 (11738089_at) / Fold change /veh C5orf56 (11738089_at) / RFU CYB561 (11721691_x_at) / Fold change /veh CYB561 (11721691_x_at) / RFU ANKRD19P (11752326_a_at) / Fold change /veh ANKRD19P (11752326_a_at) / RFU OR2T12 /// OR2T33 /// OR2T8 (11738714_s_at) / Fold change /veh OR2T12 /// OR2T33 /// OR2T8 (11738714_s_at) / RFU VCAN (11748164_a_at) / Fold change /veh VCAN (11748164_a_at) / RFU JSRP1 (11732532_at) / Fold change /veh JSRP1 (11732532_at) / RFU KRTAP10-11 (11738290_x_at) / Fold change /veh KRTAP10-11 (11738290_x_at) / RFU MYO3A (11730013_a_at) / Fold change /veh MYO3A (11730013_a_at) / RFU EBF3 (11725865_a_at) / Fold change /veh EBF3 (11725865_a_at) / RFU CAMK2N1 (11719241_x_at) / Fold change /veh CAMK2N1 (11719241_x_at) / RFU C5orf56 (11738088_a_at) / Fold change /veh C5orf56 (11738088_a_at) / RFU OLFML3 (11715873_a_at) / Fold change /veh OLFML3 (11715873_a_at) / RFU LOC100653217 /// NTM (11731650_a_at) / Fold change /veh LOC100653217 /// NTM (11731650_a_at) / RFU MAPK11 (11762145_a_at) / Fold change /veh MAPK11 (11762145_a_at) / RFU FIZ1 (11724087_x_at) / Fold change /veh FIZ1 (11724087_x_at) / RFU OASL (11726364_x_at) / Fold change /veh OASL (11726364_x_at) / RFU SOX15 (11748057_x_at) / Fold change /veh SOX15 (11748057_x_at) / RFU CD79A (11719716_a_at) / Fold change /veh CD79A (11719716_a_at) / RFU HIST1H1D (11736915_at) / Fold change /veh HIST1H1D (11736915_at) / RFU CASKIN2 (11723855_a_at) / Fold change /veh CASKIN2 (11723855_a_at) / RFU LOC730098 (11760151_x_at) / Fold change /veh LOC730098 (11760151_x_at) / RFU OR4N2 (11742367_at) / Fold change /veh OR4N2 (11742367_at) / RFU PRRT2 (11749266_a_at) / Fold change /veh PRRT2 (11749266_a_at) / RFU SNX32 (11753110_a_at) / Fold change /veh SNX32 (11753110_a_at) / RFU CDHR5 (11726645_a_at) / Fold change /veh CDHR5 (11726645_a_at) / RFU RCAN1 (11760418_a_at) / Fold change /veh RCAN1 (11760418_a_at) / RFU FAM167A (11723789_a_at) / Fold change /veh FAM167A (11723789_a_at) / RFU FAM26E (11764081_at) / Fold change /veh FAM26E (11764081_at) / RFU ISYNA1 (11749810_s_at) / Fold change /veh ISYNA1 (11749810_s_at) / RFU ACY1 (11761880_at) / Fold change /veh ACY1 (11761880_at) / RFU 11764098_at / Fold change /veh 11764098_at / RFU SAMD14 (11745864_x_at) / Fold change /veh SAMD14 (11745864_x_at) / RFU NPB (11741838_a_at) / Fold change /veh NPB (11741838_a_at) / RFU TMPRSS6 (11731388_a_at) / Fold change /veh TMPRSS6 (11731388_a_at) / RFU KRTAP10-2 (11738614_at) / Fold change /veh KRTAP10-2 (11738614_at) / RFU ARHGAP8 /// PRR5-ARHGAP8 (11727945_x_at) / Fold change /veh ARHGAP8 /// PRR5-ARHGAP8 (11727945_x_at) / RFU KRTAP5-7 /// NADSYN1 (11734609_at) / Fold change /veh KRTAP5-7 /// NADSYN1 (11734609_at) / RFU RASL12 (11751679_a_at) / Fold change /veh RASL12 (11751679_a_at) / RFU CDKN2B (11736163_a_at) / Fold change /veh CDKN2B (11736163_a_at) / RFU PRF1 (11729649_at) / Fold change /veh PRF1 (11729649_at) / RFU, ZNF638 /// ZNF638-IT1 / Fold change vs veh, ZNF638 /// ZNF638-IT1 / RFU, PANK3 / Fold change vs veh, PANK3 / RFU, SH3YL1 / Fold change vs veh, SH3YL1 / RFU, ZEB2 / Fold change vs veh, ZEB2 / RFU, NRIP1 / Fold change vs veh, NRIP1 / RFU, PTTG1IP / Fold change vs veh, PTTG1IP / RFU, CAPN2 / Fold change vs veh, CAPN2 / RFU, MED14 / Fold change vs veh, MED14 / RFU, SNORA58 / Fold change vs veh, SNORA58 / RFU, C1orf63 / Fold change vs veh, C1orf63 / RFU, LRRFIP1 / Fold change vs veh, LRRFIP1 / RFU, NDUFAF7 / Fold change vs veh, NDUFAF7 / RFU, SLC12A2 / Fold change vs veh, SLC12A2 / RFU, IBTK / Fold change vs veh, IBTK / RFU, ESF1 / Fold change vs veh, ESF1 / Fold change vs veh, TMEM50B / RFU, TAOK1 / Fold change vs veh, TAOK1 / RFU, ACBD3 / Fold change vs veh, ACBD3 / RFU, TMA16 / Fold change vs veh, TMA16 / RFU, RWDD3 / Fold change vs veh, RWDD3 / RFU, BCAT1 / Fold change vs veh, BCAT1 / RFU, EDEM3 / Fold change vs veh, EDEM3 / RFU, TMEM33 / Fold change vs veh, TMEM33 / RFU, WDR75 / Fold change vs veh, WDR75 / RFU, AHCTF1 / Fold change vs veh, AHCTF1 / RFU, TFRC / Fold change vs veh, TFRC / RFU, ZDHHC17 / Fold change vs veh, ZDHHC17 / RFU, NOM1 / Fold change vs veh, NOM1 / RFU, ARL8B / Fold change vs veh, ARL8B / RFU, ZBTB11 / Fold change vs veh, ZBTB11 / RFU, TAMM41 / Fold change vs veh, TAMM41 / RFU, KIAA1704 /// LOC100996395 / Fold change vs veh, KIAA1704 /// LOC100996395 / RFU, ING1 / Fold change vs veh, ING1 / RFU, TRMT61B / Fold change vs veh, TRMT61B / RFU, FUBP3 / Fold change vs veh, FUBP3 / RFU, TP53 / Fold change vs veh, TP53 / RFU, TNKS2 / Fold change vs veh, TNKS2 / RFU, ZFP14 / Fold change vs veh, ZFP14 / RFU, ACTR2 / Fold change vs veh, ACTR2 / RFU, PPP3R1 / Fold change vs veh, PPP3R1 / RFU, PIK3R1 / Fold change vs veh, PIK3R1 / RFU, HNRNPA1 / Fold change vs veh, HNRNPA1 / RFU, RNF170 / Fold change vs veh, RNF170 / RFU, ZNF28 / Fold change vs veh, ZNF28 / RFU, RNGTT / Fold change vs veh, RNGTT / RFU, OGT / Fold change vs veh, OGT / RFU, BRD1 / Fold change vs veh, BRD1 / RFU, MARS / Fold change vs veh, MARS / RFU, ZNF655 / Fold change vs veh, ZNF655 / RFU, FAHD1 / Fold change vs veh, FAHD1 / RFU, BDP1 / Fold change vs veh, BDP1 / RFU, LRRCC1 / Fold change vs veh, LRRCC1 / RFU, ARID1A / Fold change vs veh, ARID1A / RFU, ZNF146 / Fold change vs veh, ZNF146 / RFU, ZNF330 / Fold change vs veh, ZNF330 / RFU, GPN3 / Fold change vs veh, GPN3 / RFU, C9orf123 / Fold change vs veh, C9orf123 / RFU, N4BP2L2 / Fold change vs veh, N4BP2L2 / RFU, ARFIP1 / Fold change vs veh, ARFIP1 / RFU, FAM179B / Fold change vs veh, FAM179B / RFU, BCL10 / Fold change vs veh, BCL10 / RFU, UHRF1BP1L / Fold change vs veh, UHRF1BP1L / RFU, BET1 / Fold change vs veh, BET1 / RFU, CNOT2 / Fold change vs veh, CNOT2 / RFU, ZNF268 / Fold change vs veh, ZNF268 / Fold change vs veh, ZNF507 / RFU, DGCR2 / Fold change vs veh, DGCR2 / RFU, WDSUB1 / Fold change vs veh, WDSUB1 / Fold change vs veh, HSP90B1 /// MIR3652 / RFU, ADSS / Fold change vs veh, ADSS / RFU, GK / Fold change vs veh, GK / RFU, ZNF148 / Fold change vs veh, ZNF148 / RFU, TAF9 / Fold change vs veh, TAF9 / RFU, SLC1A5 / Fold change vs veh, SLC1A5 / RFU, SLMO2 / Fold change vs veh, SLMO2 / RFU, ABCC4 / Fold change vs veh, ABCC4 / RFU, LOC101060439 /// RAP1B / Fold change vs veh, LOC101060439 /// RAP1B / RFU, RFX7 / Fold change vs veh, RFX7 / RFU, GTPBP10 / Fold change vs veh, GTPBP10 / RFU, CNEP1R1 / Fold change vs veh, CNEP1R1 / RFU, BIVM-ERCC5 /// ERCC5 / Fold change vs veh, BIVM-ERCC5 /// ERCC5 / RFU, ILF3 / Fold change vs veh, ILF3 / RFU 11762660_at / Fold change /veh 11762660_at / RFU VCAN (11757783_s_at) / Fold change /veh VCAN (11757783_s_at) / RFU DDX43 (11728927_at) / Fold change /veh DDX43 (11728927_at) / RFU KRT8 (11758188_x_at) / Fold change /veh KRT8 (11758188_x_at) / RFU NKD1 (11759106_at) / Fold change /veh NKD1 (11759106_at) / RFU SRD5A1 (11742802_a_at) / Fold change /veh SRD5A1 (11742802_a_at) / RFU TPSAB1 /// TPSB2 (11721975_s_at) / Fold change /veh TPSAB1 /// TPSB2 (11721975_s_at) / RFU GSTM3 (11746129_a_at) / Fold change /veh GSTM3 (11746129_a_at) / RFU IL23R (11737362_x_at) / Fold change /veh IL23R (11737362_x_at) / RFU TMEM51 (11727254_a_at) / Fold change /veh TMEM51 (11727254_a_at) / RFU PIWIL2 (11732686_x_at) / Fold change /veh PIWIL2 (11732686_x_at) / RFU ORM1 (11744905_x_at) / Fold change /veh ORM1 (11744905_x_at) / RFU CCDC152 (11743942_at) / Fold change /veh CCDC152 (11743942_at) / RFU ECM1 (11717891_a_at) / Fold change /veh ECM1 (11717891_a_at) / RFU IL23R (11748794_a_at) / Fold change /veh IL23R (11748794_a_at) / RFU TNFAIP8L3 (11732012_x_at) / Fold change /veh TNFAIP8L3 (11732012_x_at) / RFU MBOAT4 (11741988_at) / Fold change /veh MBOAT4 (11741988_at) / RFU 11764193_at / Fold change /veh 11764193_at / RFU TMEM53 (11763286_at) / Fold change /veh TMEM53 (11763286_at) / RFU MAGEB2 (11727129_at) / Fold change /veh MAGEB2 (11727129_at) / RFU TMEM200A (11744735_a_at) / Fold change /veh TMEM200A (11744735_a_at) / RFU CCDC152 (11751479_a_at) / Fold change /veh CCDC152 (11751479_a_at) / RFU FAM211A (11726209_a_at) / Fold change /veh FAM211A (11726209_a_at) / RFU RGS16 (11746705_a_at) / Fold change /veh RGS16 (11746705_a_at) / RFU VCAN (11755009_s_at) / Fold change /veh VCAN (11755009_s_at) / RFU RHOB (11743442_s_at) / Fold change /veh RHOB (11743442_s_at) / RFU RGS16 (11720943_a_at) / Fold change /veh RGS16 (11720943_a_at) / RFU RGS16 (11720944_at) / Fold change /veh RGS16 (11720944_at) / RFU, VPS4B / Fold change vs veh, VPS4B / RFU, CREB1 / Fold change vs veh, CREB1 / RFU, DNAJC13 / Fold change vs veh, DNAJC13 / RFU, GNAQ / Fold change vs veh, GNAQ / RFU, CDK5R1 / Fold change vs veh, CDK5R1 / RFU, ZRANB3 / Fold change vs veh, ZRANB3 / RFU, CUL4A / Fold change vs veh, CUL4A / RFU, CCNY / Fold change vs veh, CCNY / RFU, UFL1 / Fold change vs veh, UFL1 / RFU, COG3 / Fold change vs veh, COG3 / RFU, DIAPH2 / Fold change vs veh, DIAPH2 / RFU, SKA2 / Fold change vs veh, SKA2 / RFU, AFF3 / Fold change vs veh, AFF3 / RFU, LMF1 / Fold change vs veh, LMF1 / RFU, IPO11 / Fold change vs veh, IPO11 / RFU, DFFB / Fold change vs veh, DFFB / RFU, FOXP1 / Fold change vs veh, FOXP1 / RFU, CARD8 / Fold change vs veh, CARD8 / RFU, STRN3 / Fold change vs veh, STRN3 / RFU, ADK / Fold change vs veh, ADK / RFU, RASSF2 / Fold change vs veh, RASSF2 / RFU, WIPF1 / Fold change vs veh, WIPF1 / RFU, LARP1B / Fold change vs veh, LARP1B / RFU, RASA1 / Fold change vs veh, RASA1 / RFU, RB1 / Fold change vs veh, RB1 / RFU, PPFIA1 / Fold change vs veh, PPFIA1 / RFU, MAT2A / Fold change vs veh, MAT2A / RFU, CCT5 / Fold change vs veh, CCT5 / RFU, WDR92 / Fold change vs veh, WDR92 / RFU, CUX1 / Fold change vs veh, CUX1 / RFU, TTC7A / Fold change vs veh, TTC7A / RFU, TMEM135 / Fold change vs veh, TMEM135 / RFU, DEPTOR / Fold change vs veh, DEPTOR / RFU, CPM / Fold change vs veh, CPM / RFU, DNAJB6 / Fold change vs veh, DNAJB6 / RFU, CACNA2D3 / Fold change vs veh, CACNA2D3 / RFU, DTX4 / Fold change vs veh, DTX4 / RFU, TFCP2 / Fold change vs veh, TFCP2 / RFU, GMCL1 /// GMCL1P1 / Fold change vs veh, GMCL1 /// GMCL1P1 / RFU, AEBP2 / Fold change vs veh, AEBP2 / RFU, SNHG1 /// SNORD22 /// SNORD25 /// SNORD26 /// SNORD27 /// SNORD28 /// SNORD29 /// SNORD31 / Fold change vs veh, SNHG1 /// SNORD22 /// SNORD25 /// SNORD26 /// SNORD27 /// SNORD28 /// SNORD29 /// SNORD31 / Fold change (Aza/veh), C12orf56 (ProbeSet 11735607_a_at) / Fold change (ACY-1035/veh), C12orf56 (ProbeSet 11735607_a_at) / Fold change (Aza/veh), FGFR1OP (ProbeSet 11751329_s_at) / Fold change (ACY-1035/veh), FGFR1OP (ProbeSet 11751329_s_at) / Fold change (Aza/veh), VPS36 (ProbeSet 11739960_a_at) / Fold change (ACY-1035/veh), VPS36 (ProbeSet 11739960_a_at) / RFU SYPL1 (11715823_x_at) / Fold change /veh SYPL1 (11715823_x_at) / RFU IGFBP7 (11715501_s_at) / Fold change /veh IGFBP7 (11715501_s_at) / RFU REEP3 (11722064_at) / Fold change /veh REEP3 (11722064_at) / RFU IGLL1 (11728026_x_at) / Fold change /veh IGLL1 (11728026_x_at): dose or concentration left out as unconfirmed
# Details: MV-4-11 cells, 48 hours
smiles,measurement,value
Nc1ncn([C@@H]2O[C@H](CO)[C@@H](O)[C@H]2O)c(=O)n1 [azacitidine],Fold change /veh PLEKHG5 (11737974_s_at),1.17
